# Experimental data published in ChEMBL document CHEMBL1127685, “A novel 3-substituted benzazepinone growth hormone secretagogue (L-692,429)” (1994).
# Species: Rattus norvegicus
# Assay: In vitro dose required for stimulation of GH release from rat pituitary cells
# Type: functional
# Conditions: Pituitary gland cell, read-out: ED50 (the source's name)
row,SMILES,EC50
1,CC(C)(N)CC(=O)NC1CCc2ccccc2N(Cc2ccc(-c3ccccc3C(=O)O)cc2)C1=O (stereo not given),3.2 µM
2,CC(C)(N)CC(=O)N[C@@H]1CCc2ccccc2N(Cc2ccc(-c3ccccc3-c3nn[nH]n3)cc2)C1=O,0.06 µM

# More lines, in order of falling EC50, values ahead:
row,EC50,SMILES
1,8 µM,CC(C)(N)CC(=O)NC1CCCc2ccccc2N(Cc2ccc(-c3ccccc3-c3nn[nH]n3)cc2)C1=O (stereo not given)
2,2 µM,CC(C)(N)CC(=O)NC1Cc2ccccc2N(Cc2ccc(-c3ccccc3-c3nn[nH]n3)cc2)C1=O (stereo not given)
3,0.16 µM,CC(C)(N)CC(=O)NC1CCc2ccccc2N(Cc2ccc(-c3ccccc3-c3nn[nH]n3)cc2)C1=O [L-158432]
